Molecular target: T1, human liver GK (Homo sapiens, UniProt P35557)
T1 construct: GST (glutathione S-transferase) (N); made in house; host or cells: E. coli
T1 sequence (P35557 1-466 isoform P35557-2): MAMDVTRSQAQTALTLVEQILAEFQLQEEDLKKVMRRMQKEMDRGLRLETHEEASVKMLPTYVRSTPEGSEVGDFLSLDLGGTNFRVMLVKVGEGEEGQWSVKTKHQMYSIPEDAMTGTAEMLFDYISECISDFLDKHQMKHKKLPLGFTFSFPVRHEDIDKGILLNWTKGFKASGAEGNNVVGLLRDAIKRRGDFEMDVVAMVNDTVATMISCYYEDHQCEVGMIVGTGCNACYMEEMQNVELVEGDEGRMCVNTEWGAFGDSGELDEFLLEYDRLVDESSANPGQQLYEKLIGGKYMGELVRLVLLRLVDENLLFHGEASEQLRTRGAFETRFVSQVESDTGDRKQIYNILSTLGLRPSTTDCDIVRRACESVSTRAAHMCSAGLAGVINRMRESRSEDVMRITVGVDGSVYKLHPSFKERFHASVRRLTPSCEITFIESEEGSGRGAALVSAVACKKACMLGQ
Assay: GK activation test
Format: biochemical
Details: test compound concentration needed to activate 50% of maximum activation ability; 4 mM 14C-labeled glucose, 2 mM ATP, room temperature, 20 minutes
Outline: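 GST-tagged human liver GK from E. coli (0.24 μg/well) with 4 mM 14C-glucose, 2 mM ATP in Hepes-KOH pH 7.1, KCl, MgCl2, DTT, 1% DMSO, 20 min room temperature. Labeled glucose 6-phosphate captured on anion resin, eluted and counted. EC50 = concentration giving half of maximal activation.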

Compound | EC50 [nM]
CCC(=O)N1CC[C@H](/C=C(\c2ccc(C(C)(C)C)cc2)c2ccc(Cl)c(=O)[nH]2)C1 [Example 4-68, 6-{(E)-1-(4-tert-Butylphenyl)-2-[(3R)-1-propanoylpyrrolidin-3-yl]ethenyl}-3-chloropyridin-2(1H)-one] | 10 to 500
CC(C)(C)c1ccc(/C(=C\[C@H]2CCC(=O)N2)c2ccc(Cl)c(=O)[nH]2)cc1Cl [Example 4-71, 6-{(E)-1-(4-tert-Butyl-3-chlorophenyl)-2-[(2R)-5-oxopyrrolidin-2-yl]ethenyl}-3-chloropyridin-2(1H)-one] | 10 to 500
CCS(=O)(=O)N1CC[C@H](/C=C(\c2ccc(C(C)(C)C)cc2)c2ccc(Cl)c(=O)[nH]2)C1 [Example 4-72, 6-{(E)-1-(4-tert-Butylphenyl)-2-[(3R)-1-(ethylsulfonyl)pyrrolidin-3-yl]ethenyl}-3-chloropyridin-2(1H)-one] | 10 to 500
COCCCCc1ccc(/C(=C\[C@H]2CCC(=O)N2)c2ccc(Cl)c(=O)[nH]2)cc1 [Example 4-73, 3-Chloro-6-{(E)-1-[4-(4-methoxybutyl)phenyl]-2-[(2R)-5-oxopyrrolidin-2-yl]ethenyl}pyridin-2(1H)-one] | 500 to 3000
CC(C)(C)c1ccc(/C(=C\[C@H]2CCC(=O)N2)c2ccc(C(F)(F)F)c(=O)[nH]2)cc1 [Example 4-74, 6-{(E)-1-(4-tert-Butylphenyl)-2-[(2R)-5-oxopyrrolidin-2-yl]ethenyl}-3-(trifluoromethyl)pyridin-2(1H)-one] | 10 to 500
CC(C)(C)c1ccc(/C(=C\[C@@H]2CCC(=O)N2)c2ccc(Cl)c(=O)[nH]2)cc1 [Example 4-75, 6-{(E)-1-(4-tert-Butylphenyl)-2-[(2S)-5-oxopyrrolidin-2-yl]ethenyl}-3-chloropyridin-2(1H)-one] | 3000 to 10000
O=C(C1CC1)N1CC[C@H](/C=C(\c2ccc(Cl)cc2)c2ccc(C3CC3)c(=O)[nH]2)C1 [Example 4-78, 6-{(E)-1-(4-Chlorophenyl)-2-[(3R)-1-(cyclopropylcarbonyl)pyrrolidin-3-yl]ethenyl}-3-cyclopropylpyridin-2(1H)-one] | 10 to 500
CN1CCOc2cc(/C(=C\[C@H]3CCC(=O)N3)c3ccc(Cl)c(=O)[nH]3)ccc21 [Example 4-79, 3-Chloro-6-{(E)-1-(4-methyl-3,4-dihydro-2H-1,4-benzoxazin-7-yl)-2-[(2R)-5-oxopyrrolidin-2-yl]ethenyl}pyridin-2(1H)-one] | 500 to 3000
CC(C)c1ccc([C@@H](C[C@H]2CCC(=O)N2)c2ccc(C3CC3)c(=O)[nH]2)cc1 [Example 4-80, 3-Cyclopropyl-6-{(1R)-2-[(2R)-5-oxopyrrolidin-2-yl]-1-[4-(propan-2-yl)phenyl]ethyl}pyridin-2(1H)-one] | 10 to 500
CC(C)c1ccc(/C(=C\[C@H]2CCC(=O)N2)c2ccc(C3CC3)c(=O)[nH]2)cc1Cl [Example 4-81, 6-{(E)-1-[3-Chloro-4-(propan-2-yl)phenyl]-2-[(2R)-5-oxopyrrolidin-2-yl]ethenyl}-3-cyclopropylpyridin-2(1H)-one] | 10 to 500
CC(C)c1ccc(/C(=C/[C@H]2CCC(=O)N2)c2ccc(Cl)c(=O)[nH]2)cc1 [Example 4-82, 3-Chloro-6-{(Z)-2-[(2R)-5-oxopyrrolidin-2-yl]-1-[4-(propan-2-yl)phenyl]ethenyl}pyridin-2(1H)-one] | 3000 to 10000
CC(C)(C)c1ccc(/C(=C\[C@H]2CCC(=O)N2)c2ccc(C3CC3)c(=O)[nH]2)cc1 [Example 4-83, 6-{(E)-1-(4-tert-Butylphenyl)-2-[(2R)-5-oxopyrrolidin-2-yl]ethenyl}-3-cyclopropylpyridin-2(1H)-one] | 10 to 500
CC(C)c1ccc(/C(=C\[C@H]2CCC(=O)N2)c2ccc(Cl)c(=O)[nH]2)cc1Cl [Example 4-84, 3-Chloro-6-{(E)-1-[3-chloro-4-(propan-2-yl)phenyl]-2-[(2R)-5-oxopyrrolidin-2-yl]ethenyl}pyridin-2(1H)-one] | 10 to 500
O=C1CC[C@H](/C=C(\c2ccc(C3CC3)cc2)c2ccc(Cl)c(=O)[nH]2)N1 [Example 4-88, 3-Chloro-6-{(E)-1-(4-cyclopropylphenyl)-2-[(2R)-5-oxopyrrolidin-2-yl]ethenyl}pyridin-2(1H)-one] | 500 to 3000
CN1CCN(S(=O)(=O)c2ccc(C(C[C@H]3CCC(=O)N3)c3ccc(Cl)c(=O)[nH]3)cc2)CC1 (stereo partly drawn) [Example 4-89, 3-Chloro-6-(1-{4-[(4-methylpiperazin-1-yl)sulfonyl]phenyl}-2-[(2R)-5-oxopyrrolidin-2-yl]ethyl)pyridin-2(1H)-one] | 3000 to 10000
O=C1CC[C@H](/C=C(\c2ccc(OC3CC3)cc2)c2ccc(Cl)c(=O)[nH]2)N1 [Example 4-90, 3-Chloro-6-{(E)-1-[4-(cyclopropyloxy)phenyl]-2-[(2R)-5-oxopyrrolidin-2-yl]ethenyl}pyridin-2(1H)-one] | 500 to 3000
CC(C)(C)c1ccc(/C(=C\[C@H]2CCN(C(=O)C3CC3)C2)c2ccc(Cl)c(=O)[nH]2)cc1 [Example 4-92, 6-{(E)-1-(4-tert-Butylphenyl)-2-[(3R)-1-(cyclopropylcarbonyl)pyrrolidin-3-yl]ethenyl}-3-chloropyridin-2(1H)-one] | 10 to 500
CC(C)(C)c1ccc(/C(=C\[C@H]2CCN(C(=O)C3CCOCC3)C2)c2ccc(Cl)c(=O)[nH]2)cc1 [Example 4-93, 6-{(E)-1-(4-tert-Butylphenyl)-2-[(3R)-1-(tetrahydro-2H-pyran-4-ylcarbonyl)pyrrolidin-3-yl]ethenyl}-3-chloropyridin-2(1H)-one] | 3000 to 10000
O=C1CC[C@H](/C=C(\c2ccc(Cl)cc2)c2ccc(C3CC3)c(=O)[nH]2)N1 [Example 4-98, 6-{(E)-1-(4-Chlorophenyl)-2-[(2R)-5-oxopyrrolidin-2-yl]ethenyl}-3-cyclopropylpyridin-2(1H)-one] | 10 to 500
O=C1CC[C@H](/C=C(\c2ccc(C(F)(F)F)cc2)c2ccc(C3CC3)c(=O)[nH]2)N1 [Example 4-99, 3-Cyclopropyl-6-{(E)-2-[(2R)-5-oxopyrrolidin-2-yl]-1-[4-(trifluoromethyl)phenyl]ethenyl}pyridin-2(1H)-one] | 10 to 500
O=C1CC[C@H](/C=C(\c2ccc(F)cc2)c2ccc(C3CC3)c(=O)[nH]2)N1 [Example 4-100, 3-Cyclopropyl-6-{(E)-1-(4-fluorophenyl)-2-[(2R)-5-oxopyrrolidin-2-yl]ethenyl}pyridin-2(1H)-one] | 500 to 3000
O=C1CC[C@H](/C=C(\c2ccc(Cl)c(Cl)c2)c2ccc(C3CC3)c(=O)[nH]2)N1 [Example 4-101, 3-Cyclopropyl-6-{(E)-1-(3,4-dichlorophenyl)-2-[(2R)-5-oxopyrrolidin-2-yl]ethenyl}pyridin-2(1H)-one] | 10 to 500
Cc1ccc(/C(=C\[C@H]2CCC(=O)N2)c2ccc(C3CC3)c(=O)[nH]2)c(F)c1 [Example 4-102, 3-Cyclopropyl-6-{(E)-1-(2-fluoro-4-methylphenyl)-2-[(2R)-5-oxopyrrolidin-2-yl]ethenyl}pyridin-2(1H)-one] | 10 to 500
O=C1CC[C@H](/C=C(\c2ccc(C(F)(F)F)c(Cl)c2)c2ccc(C3CC3)c(=O)[nH]2)N1 [Example 4-103, 6-{(E)-1-[3-Chloro-4-(trifluoromethyl)phenyl]-2-[(2R)-5-oxopyrrolidin-2-yl]ethenyl}-3-cyclopropylpyridin-2(1H)-one] | 10 to 500
O=C1CC[C@H](/C=C(\c2ccc(F)c(Cl)c2)c2ccc(C3CC3)c(=O)[nH]2)N1 [Example 4-104, 6-{(E)-1-(3-Chloro-4-fluorophenyl)-2-[(2R)-5-oxopyrrolidin-2-yl]ethenyl}-3-cyclopropylpyridin-2(1H)-one] | 500 to 3000
O=C1CC[C@H](/C=C(\c2ccc(Cl)c(C(F)(F)F)c2)c2ccc(C3CC3)c(=O)[nH]2)N1 [Example 4-105, 6-{(E)-1-[4-Chloro-3-(trifluoromethyl)phenyl]-2-[(2R)-5-oxopyrrolidin-2-yl]ethenyl}-3-cyclopropylpyridin-2(1H)-one] | 10 to 500
Cc1ccc(/C(=C\[C@H]2CCC(=O)N2)c2ccc(C3CC3)c(=O)[nH]2)cc1Cl [Example 4-106, 6-{(E)-1-(3-Chloro-4-methylphenyl)-2-[(2R)-5-oxopyrrolidin-2-yl]ethenyl}-3-cyclopropylpyridin-2(1H)-one] | 10 to 500
Cc1cc(/C(=C\[C@H]2CCC(=O)N2)c2ccc(C3CC3)c(=O)[nH]2)ccc1Cl [Example 4-107, 6-{(E)-1-(4-Chloro-3-methylphenyl)-2-[(2R)-5-oxopyrrolidin-2-yl]ethenyl}-3-cyclopropylpyridin-2(1H)-one] | 10 to 500
O=C1CC[C@H](/C=C(\c2ccc(C(F)(F)F)nc2)c2ccc(C3CC3)c(=O)[nH]2)N1 [Example 4-108, 3-Cyclopropyl-6-{(E)-2-[(2R)-5-oxopyrrolidin-2-yl]-1-[6-(trifluoromethyl)pyridin-3-yl]ethenyl}pyridin-2(1H)-one] | 500 to 3000
Cc1ccc(/C(=C\[C@H]2CCC(=O)N2)c2ccc(C3CC3)c(=O)[nH]2)c(Cl)c1 [Example 4-109, 6-{(E)-1-(2-Chloro-4-methylphenyl)-2-[(2R)-5-oxopyrrolidin-2-yl]ethenyl}-3-cyclopropylpyridin-2(1H)-one] | 500 to 3000

Reference: patent US8822503B2, “2-pyridone compounds” (Taisho Pharmaceutical Co., Ltd, priority 2009, dated 2014)
